Source: patent publication US20120010285A1, “AGENT FOR PROMOTING ENERGY CONSUMPTION” (KAO CORPORATION, priority 2009, published 2012)

Key:
ACC2 mRNA = assay: Expression of ACC2 mRNA in cultured mouse liver cell line Hepa1-6 (quantitative PCR); format: cell-based; conditions: Hepa1-6 cells, each of the chlorogenic acids (Production Example 4) 5 mM, 24 hours, control at 100
Description: (§1) A cultured mouse liver cell line (Hepa1-6 cell) was cultured in 10% bovine serum-containing Dulbeco's Modified Eagle's Medium (DMEM) at 37° C., 5% CO2. The cells were seeded in a 6-well plate, and when they reached subconfluency, the medium was replaced by a serum free medium (DMEM, -FBS), followed by culturing for further 12 hours. Subsequently, various samples were added (final concentration: chlorogenic acids (Production Example 1) 2.5×10^−4% (w/v) and each of the chlorogenic acids (Production Example 4) 5 mM), and after 24 hours of culturing, total RNA was prepared according to a standard method. After preparing cDNA by reverse transcription reaction, quantitative PCR was performed by ABI PRISM 7000 Sequence Detection System (Applied Biosystems) using Power SYBR Green Master Mix (Applied Biosystems). Also, the expression level of each gene was corrected using the expression level of 36B4 as an internal standard, and represented as a relative expression level by setting the expression level of control at 100.

PDK4 mRNA = assay: Expression of PDK4 mRNA in cultured mouse liver cell line Hepa1-6 (quantitative PCR); format: cell-based; conditions: Hepa1-6 cells, each of the chlorogenic acids (Production Example 4) 5 mM, 24 hours, control at 100
Description: as §1

Structure (SMILES) | expression of ACC2 mRNA (ACC2 mRNA) | expression of PDK4 mRNA (PDK4 mRNA)
O=C(/C=C/c1ccc(O)c(O)c1)O[C@@H]1[C@H](O)C[C@@](O)(C(=O)O)C[C@H]1OC(=O)/C=C/c1ccc(O)c(O)c1 [3,4-dicaffeoylquinic acid] | significantly reduced | significantly inhibited
O=C(/C=C/c1ccc(O)c(O)c1)O[C@@H]1CC(O)(C(=O)O)C[C@@H](OC(=O)/C=C/c2ccc(O)c(O)c2)C1O (some centres unmarked) [3,5-dicaffeoylquinic acid] | significantly reduced | 
O=C(/C=C/c1ccc(O)c(O)c1)O[C@@H]1C[C@](O)(C(=O)O)C[C@@H](O)[C@H]1O [3-caffeoylquinic acid] | significantly reduced | significantly inhibited
O=C(/C=C/c1ccc(O)c(O)c1)O[C@H]1[C@H](O)C[C@](O)(C(=O)O)C[C@H]1OC(=O)/C=C/c1ccc(O)c(O)c1 [4,5-dicaffeoylquinic acid] | significantly reduced | 
O=C(/C=C/c1ccc(O)c(O)c1)O[C@H]1[C@H](O)C[C@](O)(C(=O)O)C[C@H]1O [4-caffeoylquinic acid] | significantly reduced | significantly inhibited
